Data reported in patent publication US6406881B2 (priority 1999, dated 2002).

How the values were obtained:
[1] = system: Escherichia coli; assay: Mutant prevention concentration (MPC) against Escherichia coli; type: cell-based; conditions: for WI (MPC/MIC): window index
[2] = system: Staphylococcus aureus; assay: Mutant prevention concentration (MPC) against Staphylococcus aureus; type: cell-based; conditions: for WI (MPC/MIC): window index

Molecule	MPC (MPC10^10) [1]	WI (MPC/MIC) [1]	MPC (MPC10^10) [2] [μg/ml]	WI (MPC/MIC) [2]	WI (MPC/MIC) ([2]; listed as chloramphenicol)	WI (MPC/MIC) ([2]; listed as rifampicin)
O=C(N[C@H](CO)[C@H](O)c1ccc([N+](=O)[O-])cc1)C(Cl)Cl [Chloramphenicol]	12 μg/ml	6.3	40	21	about 21	–
CCn1cc(C(=O)O)c(=O)c2cc(F)c(N3CCNCC3)cc21 [Norfloxacin]	1.5 μg/ml	33	22	26	–	–
CO[C@H]1/C=C/O[C@@]2(C)Oc3c(C)c(O)c4c(O)c(c(/C=N/N5CCN(C)CC5)c(O)c4c3C2=O)NC(=O)/C(C)=C\C=C\[C@H](C)[C@H](O)[C@@H](C)[C@@H](O)[C@@H](C)[C@H](OC(C)=O)[C@@H]1C [Rifampicin]	>4,000 μg/ml	>800	480	120,000	–	greater than 120,000
NC[C@H]1O[C@H](O[C@H]2[C@H](O)[C@@H](O[C@H]3O[C@H](CO)[C@@H](O)[C@H](N)[C@H]3O)[C@H](N)C[C@@H]2N)[C@H](N)C[C@@H]1O [Tobramycin]	25 μg/ml	21	20	74	–	–
CN[C@H](CC(C)C)C(=O)N[C@H]1C(=O)N[C@@H](CC(N)=O)C(=O)N[C@H]2C(=O)N[C@H]3C(=O)N[C@H](C(=O)N[C@H](C(=O)O)c4cc(O)cc(O)c4-c4cc3ccc4O)[C@H](O)c3ccc(c(Cl)c3)Oc3cc2cc(c3O[C@@H]2O[C@H](CO)[C@@H](O)[C@H](O)[C@H]2O[C@H]2C[C@](C)(N)[C@H](O)[C@H](C)O2)Oc2ccc(cc2Cl)[C@H]1O [Vancomycin]	–	–	40	61	–	–
Penicillin	300 μg/ml	100	1	42	–	–
